This note sets out measurements from patent US7060822B1, “2-pyrazolin-5-ones” (Abbott GmbH & Co. KG, priority 1999, dated 2006).

Molecules are shown by their SMILES.

What is called melting point is the temperature of the solid-liquid transition.

Consider `Cc1cccc2c(C=C3C(=O)NN=C3C3CC3)c[nH]c12` [Example 274, 3-Cyclopropyl-4-[(7-methylindol-3-yl)methylene]-2-pyrazolin-5-one], for which the melting point was in the range of 286 to 288 °C.

The molecule `Cn1cc(C=C2C(=O)NN=C2c2cccnc2)c2ccccc21` [Example 275, 4-[(1-Methylindol-3-yl)methylene]-3-(3-pyridyl)-2-pyrazolin-5-one] came in with a melting point of 230 to 232 °C.

As to `CCOC(=O)C1=NNC(=O)C1=Cc1c[nH]c2ccccc12` [Example 283, 3-Ethoxycarbonyl-4-[(indol-3-yl)methylene]-2-pyrazolin-5-one], the melting point was 250 °C (dec.).

Molecule `COC(=O)CCC1=NNC(=O)C1=Cc1c[nH]c2ccccc12` [Example 284, 4-[(Indol-3-yl)methylene]-3-(2-methoxycarbonylethyl)-2-pyrazolin-5-one] came in with a melting point of 267 to 269 °C.

With `O=C1NN=C(C2CCC2)C1=Cc1cn(CCCCO)c2ccccc12` [Example 286, 3-Cyclobutyl-4-{[1-(4-hydroxybutyl)indol-3-yl]methylene}-2-pyrazolin-5-one], the melting point was in the range of 220 to 222 °C.

For `Cn1cc(C=C2C(=O)NN=C2C2CC2)c2ccc(C(=O)O)cc21` [Example 287, 4-[(6-Carboxy-1-methylindol-3-yl)methylene]-3-cyclopropyl-2-pyrazolin-5-one], the melting point was 237 to 240 °C (dec.).

The molecule `COc1ccc2c(c1)c(C=C1C(=O)NN=C1C1CC1)cn2C` [Example 288, 3-Cyclopropyl-4-[(5-methoxy-1-methylindol-3-yl)methylene]-2-pyrazolin-5-one] returned a melting point of 236 to 238 °C.

Take `Cn1cc(C=C2C(=O)NN=C2c2cnccn2)c2ccccc21` [Example 289, 4-[(1-Methylindol-3-yl)methylene]-3-pyrazinyl-2-pyrazolin-5-one]: the melting point was 263 to 265 °C.

As to `Cc1cccc2c(C=C3C(=O)NN=C3C3CC3)cn(C)c12` [Example 290, 3-Cyclopropyl-4-[(1,7-dimethylindol-3-yl)methylene]-2-pyrazolin-5-one], the melting point lay within 258 to 260 °C.

On to `Cn1cc(C=C2C(=O)NN=C2C2CCOC2)c2ccccc21` (centres unmarked) [Example 291, 4-[(1-Methylindol-3-yl)methylene]-3-(tetrahydrofuran-3-yl)-2-pyrazolin-5-one], for which the melting point is 208 to 210 °C.

As to `Cn1cc(C=C2C(=O)NN=C2NC2CC2)c2ccccc21` [Example 292, 3-Cyclopropylamino-4-[(1-methylindol-3-yl)methylene]-2-pyrazolin-5-one], the melting point is 160 to 164 °C (dec.).

In turn, `CC(C)OC1=NNC(=O)C1=Cc1cn(C)c2cc(C(=O)O)ccc12` [Example 293, 4-[(6-Carboxy-1-methylindol-3-yl)methylene]-3-isopropoxy-2-pyrazolin-5-one] gave a melting point of 330 to 332 °C.

Take `Cc1cccc2c(C=C3C(=O)NN=C3OC(C)C)cn(C)c12` [Example 294, 4-[(1,7-Dimethylindol-3-yl)methylene]-3-isopropoxy-2-pyrazolin-5-one]: the melting point lay in the range of 245 to 247 °C.

Consider `COc1ccc2c(c1)c(C=C1C(=O)NN=C1OC(C)C)cn2C` [Example 295, 3-Isopropoxy-4-[(5-methoxy-1-methylindol-3-yl)methylene]-2-pyrazolin-5-one], for which the melting point fell in the range of 238 to 239 °C.

Regarding `Cn1cc(C=C2C(=O)NN=C2Nc2ccc(F)cc2)c2ccccc21` [Example 296, 3-(4-Fluorophenylamino)-4-[(1-methylindol-3-yl)methylene]-2-pyrazolin-5-one], the melting point was 218 to 219 °C.

In the case of `Cn1cc(C=C2C(=O)NN=C2NC(=O)C(F)(F)F)c2ccccc21` [Example 297, 4-[(1-Methylindol-3-yl)methylene]-3-trifluoroacetamido-2-pyrazolin-5-one], the melting point was in the range of 252 to 253 °C.

In turn, `Cn1cc(C=C2C(=O)NN=C2CCc2ccc(N)cc2)c2ccccc21` [Example 298, 3-(4-Aminophenylethyl)-4-[(1-methylindol-3-yl)methylene]-2-pyrazolin-5-one] returned a melting point of 192 to 193 °C.
